Experiments:
[1] = tested on: stem cell factor (SCF) gene expression in Sertoli cells; experiment: Northern blot analysis of SCF gene expression in cultured Sertoli cells; type: cell-based; conditions: 16 hours, rat Sertoli cells, actin as control
Protocol: As indicated above, it has been discovered that GHRH-RP has a unique testicular action. GHRH-RP specifically activated SVF in Sertoli cells as described in Example 3 below. […] Northern gel analysis of 10 μg of total Sertoli cell RNA was performed and the blot probed for SCF, transferrin, androgen binding protein (ABP), α-inhibin and γ-actin as control. B. Bloch, A. Baird, N. Ling, R. Guillemin, Endocrinology 118, 156 (1986). Stimulation of SCF expression is 12 fold over control at 10 nM and 16 fold at 100 nM concentrations of GHRH-RP. GHRH (10 nM) stimulated stem cell factor gene expression 3 fold over control. […] Other Sertoli cell specific transcripts including transferrin, ABP and α-inhibin were note regulated by GHRH-RP (FIG. 6). Although a functional GHRH receptor has been identified in Sertoli cells (R. S. Johnson, B. M. Spiegelman, V. Papaioannou, Cell 71, 577 (1992); K. M. Zsebo et al., Cell 63, 213 (1990); E. Huang et al., Cell 63, 225), the GHRH-RP stimulation of stem cell factor expression may not be mediated through this receptor. […] Briefly, shown in FIG. 6 are the results of experiments in which rat Sertoli cells, isolated and cultured for 4 days were incubated with GHRH-RP (100 nM), GHRH (100 nM), FSH (0.0275 U/ml) or control media for 30 minutes at 37° C. The cells were then assayed for cAMP production by 125 I cAMP Radioimmunoassay. C. H. Srivastava, J. D. Fleck, A. M. Meyers, S. A. Berry, O. H. Pescovitz, "Distribution of Growth Hormone Releasing Hormone-Like (HRH-LI) mRNA and Immunoreactivity in Rat Tissues" (Abstract), The Endocrine Society, 73rd Annual Endocrine Society, Washington, D.C. (1991). Adenylate cyclase stimulation is measured as fold stimulation of control. Each bar is representative of five separate experiments.
(§1) Sprague-Dawley rats (20-22 day old) were obtained from Harlan Labs (Indianapolis, IN). […] Cell purity was monitored by phase contrast microscopy and by comparative reverse transcription-polymerase chain reaction (RT-PCR) amplification. […]

[2] = tested on: transferrin gene expression in Sertoli cells; experiment: Northern blot analysis of transferrin gene expression in cultured Sertoli cells; type: cell-based; conditions: GHRH-RP 10 nM and 100 nM, GHRH 10 nM, 16 hours, rat Sertoli cells
Protocol: (§2) As indicated above, it has been discovered that GHRH-RP has a unique testicular action. GHRH-RP specifically activated SVF in Sertoli cells as described in Example 3 below. […] Northern gel analysis of 10 μg of total Sertoli cell RNA was performed and the blot probed for SCF, transferrin, androgen binding protein (ABP), α-inhibin and γ-actin as control. B. Bloch, A. Baird, N. Ling, R. Guillemin, Endocrinology 118, 156 (1986). Stimulation of SCF expression is 12 fold over control at 10 nM and 16 fold at 100 nM concentrations of GHRH-RP. GHRH (10 nM) stimulated stem cell factor gene expression 3 fold over control. […] Other Sertoli cell specific transcripts including transferrin, ABP and α-inhibin were note regulated by GHRH-RP (FIG. 6). Although a functional GHRH receptor has been identified in Sertoli cells (R. S. Johnson, B. M. Spiegelman, V. Papaioannou, Cell 71, 577 (1992); K. M. Zsebo et al., Cell 63, 213 (1990); E. Huang et al., Cell 63, 225), the GHRH-RP stimulation of stem cell factor expression may not be mediated through this receptor. […] Adenylate cyclase stimulation is measured as fold stimulation of control. […]
as §1

[3] = tested on: androgen binding protein (ABP) gene expression in Sertoli cells; experiment: Northern blot analysis of androgen binding protein (ABP) gene expression in cultured Sertoli cells; type: cell-based; conditions: GHRH-RP 10 nM and 100 nM, GHRH 10 nM, 16 hours, rat Sertoli cells
Protocol: as §2, §1

[4] = tested on: α-inhibin gene expression in Sertoli cells; experiment: Northern blot analysis of α-inhibin gene expression in cultured Sertoli cells; type: cell-based; conditions: GHRH-RP 10 nM and 100 nM, GHRH 10 nM, 16 hours, rat Sertoli cells
Protocol: as §2, §1

[5] = tested on: stem cell factor (SCF) gene expression in Sertoli cells; conditions: treatment of cultured Sertoli cells; Srivastava et al., Endocrinology 133, 1478 (1993); cited from earlier work
[6] = tested on: Sertoli cell c-fos gene expression; conditions: treatment of cultured Sertoli cells; Srivastava et al., Endocrinology 133, 1478 (1993); cited from earlier work
[7] = tested on: adenylate cyclase in cultured Sertoli cells; experiment: cAMP production (125I cAMP radioimmunoassay) in cultured Sertoli cells; type: cell-based; conditions: 100 nM, 30 minutes at 37° C., rat Sertoli cells day 4 of culture
Protocol: As indicated above, it has been discovered that GHRH-RP has a unique testicular action. GHRH-RP specifically activated SVF in Sertoli cells as described in Example 3 below. […] Northern gel analysis of 10 μg of total Sertoli cell RNA was performed and the blot probed for SCF, transferrin, androgen binding protein (ABP), α-inhibin and γ-actin as control. B. Bloch, A. Baird, N. Ling, R. Guillemin, Endocrinology 118, 156 (1986). Stimulation of SCF expression is 12 fold over control at 10 nM and 16 fold at 100 nM concentrations of GHRH-RP. GHRH (10 nM) stimulated stem cell factor gene expression 3 fold over control. […] Other Sertoli cell specific transcripts including transferrin, ABP and α-inhibin were note regulated by GHRH-RP (FIG. 6). Although a functional GHRH receptor has been identified in Sertoli cells (R. S. Johnson, B. M. Spiegelman, V. Papaioannou, Cell 71, 577 (1992); K. M. Zsebo et al., Cell 63, 213 (1990); E. Huang et al., Cell 63, 225), the GHRH-RP stimulation of stem cell factor expression may not be mediated through this receptor. […] Briefly, shown in FIG. 6 are the results of experiments in which rat Sertoli cells, isolated and cultured for 4 days were incubated with GHRH-RP (100 nM), GHRH (100 nM), FSH (0.0275 U/ml) or control media for 30 minutes at 37° C. […] Adenylate cyclase stimulation is measured as fold stimulation of control. […]

Question: For “GHRH: mature 43 amino acid rat GHRH peptide, hypothalamic factor that stimulates release of pituitary growth hormone (HADAIFTSSYRRILGQLYARKLLHEIMNRQQGERNQEQRSRFN)”, which “Stimulation of SCF expression” value ([1]; 10 nM) is on record?
Answer: 3 fold over control

Question: What about the “stimulation of transferrin gene expression over control” value [2] of the same substance?
Answer: no stimulation

Question: And the “stimulation of ABP gene expression over control” value [3]?
Answer: no stimulation

Question: And the “stimulation of α-inhibin gene expression over control” value [4]?
Answer: no stimulation

Question: And the “Sertoli cell stem cell factor gene expression” value [5]?
Answer: activates

Question: What about the “Sertoli cell c-fos gene expression” value [6] of the same substance?
Answer: activates

Question: With “GHRH-RP: 30 amino acid C-terminal peptide of the GHRH precursor; rat peptide synthesized from the deduced amino acid sequence (amino acids 74-104) (HLDRVWAEDKQMALESILQGFPRMKLSAEA)” as the substance, how does the “Stimulation of SCF expression” value ([1]; 10 nM) read?
Answer: 12 fold over control

Question: And the “Stimulation of SCF expression” value ([1]; 100 nM)?
Answer: 16 fold

Question: And the “stimulation of transferrin gene expression over control” value [2]?
Answer: no stimulation

Question: And the “stimulation of ABP gene expression over control” value [3]?
Answer: no stimulation

Question: What about the “stimulation of α-inhibin gene expression over control” value [4] of the same substance?
Answer: no stimulation

Question: What about the “Adenylate cyclase stimulation (cAMP production)” value [7] of the same substance?
Answer: does not stimulate increases

From US6159934A, “Use of GHRH-RP to stimulate stem cell factor production” (Indiana University Foundation, priority 1996, dated 2000)
